Measurements reported in PubChem BioAssay AID2060488 (Molecular Pharmacology Branch, DTP, NCI, 2025).

Tested on: 966289-007-R4-J1-PDC complex spheroid viability
Experiment: Anticancer human tumor 966289-007-R4-J1-PDC patient-derived pancreatic adenocarcinoma cell line growth inhibition [GQUAD]
Conditions: for IC50: curve of first compound; for viability, T/C: stronger effect = lower value
Procedure, shortened: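 Viability of tumor cells grown as complex spheroids with endothelial and stromal cells, exposed to drug combinations. Top concentration at or near clinical Cmax (else 10 microM), diluted in half-log increments.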
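Further: spheroids exposed to the agents for seven days before readout.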
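Wherever viability, T/C is given: percent viability relative to DMSO vehicle control wells taken as 100%.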

Cc1[nH]c2ccccc2c1CCNCc1ccc(/C=C/C(=O)NO)cc1 + CN(C)c1ccc(Nc2c3ccc(NC(=O)CCN4CCCC4)cc3nc3cc(NC(=O)CCN4CCCC4)ccc23)cc1
IC50 (second compound 0.0316 µM): 0.078 µM
IC50 (second compound 0.1 µM): 0.0684 µM
IC50 (second compound 0.316 µM): 0.075 µM
IC50 (second compound 1 µM): 0.0675 µM
IC50 (second compound 3.16 µM): 0.0543 µM
IC50 (second compound 10 µM): 0.0469 µM
viability, T/C (second compound 0.0316 µM, first compound 0.000999 µM): 106%
viability, T/C (second compound 0.0316 µM, first compound 0.00316 µM): 95.3%
viability, T/C (second compound 0.0316 µM, first compound 0.00999 µM): 109%
viability, T/C (second compound 0.0316 µM, first compound 0.0316 µM): 85.8%
viability, T/C (second compound 0.0316 µM, first compound 0.0999 µM): 40.2%
viability, T/C (second compound 0.0316 µM, first compound 0.316 µM): 5.05%
viability, T/C (second compound 0.1 µM, first compound 0.000999 µM): 106%
viability, T/C (second compound 0.1 µM, first compound 0.00316 µM): 102%
viability, T/C (second compound 0.1 µM, first compound 0.00999 µM): 109%
viability, T/C (second compound 0.1 µM, first compound 0.0316 µM): 87.8%
viability, T/C (second compound 0.1 µM, first compound 0.0999 µM): 31.4%
viability, T/C (second compound 0.1 µM, first compound 0.316 µM): 4.54%
viability, T/C (second compound 0.316 µM, first compound 0.000999 µM): 94.7%
viability, T/C (second compound 0.316 µM, first compound 0.00316 µM): 97.8%
viability, T/C (second compound 0.316 µM, first compound 0.00999 µM): 109%
viability, T/C (second compound 0.316 µM, first compound 0.0316 µM): 101%
viability, T/C (second compound 0.316 µM, first compound 0.0999 µM): 33.1%
viability, T/C (second compound 0.316 µM, first compound 0.316 µM): 3.99%
viability, T/C (second compound 1 µM, first compound 0.000999 µM): 98.9%
viability, T/C (second compound 1 µM, first compound 0.00316 µM): 100%
viability, T/C (second compound 1 µM, first compound 0.00999 µM): 108%
viability, T/C (second compound 1 µM, first compound 0.0316 µM): 98.2%
viability, T/C (second compound 1 µM, first compound 0.0999 µM): 25%
viability, T/C (second compound 1 µM, first compound 0.316 µM): 3.89%
viability, T/C (second compound 3.16 µM, first compound 0.000999 µM): 98.3%
viability, T/C (second compound 3.16 µM, first compound 0.00316 µM): 104%
viability, T/C (second compound 3.16 µM, first compound 0.00999 µM): 104%
viability, T/C (second compound 3.16 µM, first compound 0.0316 µM): 81%
viability, T/C (second compound 3.16 µM, first compound 0.0999 µM): 14.8%
viability, T/C (second compound 3.16 µM, first compound 0.316 µM): 1.84%
viability, T/C (second compound 10 µM, first compound 0.000999 µM): 100%
viability, T/C (second compound 10 µM, first compound 0.00316 µM): 104%
viability, T/C (second compound 10 µM, first compound 0.00999 µM): 108%
viability, T/C (second compound 10 µM, first compound 0.0316 µM): 74.8%
viability, T/C (second compound 10 µM, first compound 0.0999 µM): 2.99%
viability, T/C (second compound 10 µM, first compound 0.316 µM): 0.49%
